Patent US12336981B2, “Compounds and compositions for the inhibition of NAMPT” (Valo Health, Inc., priority 2010, dated 2025)
Read-outs that look alike come from different tables or passages of the source.

Experiments:
NAMPT = target: T1, NAMPT (Homo sapiens, UniProt P43490); test: Biochemical inhibition assay: NAMPT enzymatic reaction, NMN quantified by mass spectrometry; conditions: read-out: Biochem IC50
T1 construct: His tag; host or cells: E. coli
Procedure, shortened: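 Inhibition of E. coli-expressed His-tagged human NAMPT, measured as NMN formation by mass spectrometry after a 30 min room-temperature reaction containing 1 μM NAM, 100 μM PRPP and 2.5 mM ATP.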

A2780 cells = test: In-vitro cell proliferation assay (SRB), A2780 cells; type: cell-based; conditions: Homo sapiens, A2780, 72 h, A2780 cells, 72 hours, read-out: A2780 IC50
Procedure, shortened: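 Viable cells measured by SRB staining after 6% TCA fixation, absorbance 570 nm. Media-only background subtracted; % inhibition derived at two compound concentrations.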

T1 sequence (P43490 whole entry): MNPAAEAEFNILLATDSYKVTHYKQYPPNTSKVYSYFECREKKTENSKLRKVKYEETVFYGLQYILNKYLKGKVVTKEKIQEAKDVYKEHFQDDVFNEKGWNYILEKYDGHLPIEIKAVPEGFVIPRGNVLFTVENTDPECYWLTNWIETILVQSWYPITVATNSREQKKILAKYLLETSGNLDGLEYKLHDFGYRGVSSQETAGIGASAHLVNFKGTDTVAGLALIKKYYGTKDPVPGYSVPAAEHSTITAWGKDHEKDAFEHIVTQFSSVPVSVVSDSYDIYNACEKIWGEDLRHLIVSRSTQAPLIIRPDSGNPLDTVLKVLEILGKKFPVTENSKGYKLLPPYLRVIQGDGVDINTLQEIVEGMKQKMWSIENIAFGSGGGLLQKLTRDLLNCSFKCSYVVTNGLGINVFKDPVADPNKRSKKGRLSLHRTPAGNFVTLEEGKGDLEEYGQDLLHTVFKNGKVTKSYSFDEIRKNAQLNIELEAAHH

For CCOc1cc(S(=O)(=O)c2ccc(CNC(=O)c3cc4cnccc4[nH]3)cc2)ccc1F, the IC50 (NAMPT; NAMPT enzymatic reaction) was 82.4 nM and the IC50 (A2780 cells; SRB) was 4.4 nM.

COc1ccc(S(=O)(=O)c2ccc(CNC(=O)c3cc4ccncc4s3)cc2)c(Cl)c1 showed an IC50 (NAMPT; NAMPT enzymatic reaction) of 2.7 nM and an IC50 (A2780 cells; SRB) of 5.5 nM.

O=C(NCc1ccc(S(=O)(=O)c2c(F)cccc2Cl)cc1)c1cc2cnccc2[nH]1 was tested, and the IC50 (NAMPT; NAMPT enzymatic reaction) was 114 nM and the IC50 (A2780 cells; SRB) was 37.1 nM.

CCOc1cccc(S(=O)(=O)c2ccc(CNC(=O)c3cnc4nccn4c3)cc2)c1 was tested, and the IC50 (NAMPT; NAMPT enzymatic reaction) was 2.1 nM and the IC50 (A2780 cells; SRB) was 6.7 nM.

O=C(NCc1ccc(S(=O)(=O)c2ccc(F)cc2C(F)(F)F)cc1)c1ccc2nccn2c1 showed an IC50 (NAMPT; NAMPT enzymatic assay) of 4 nM and an IC50 (A2780 cells; SRB) of 15 nM.

With COc1ccc(OC)c(S(=O)(=O)c2ccc(CNC(=O)c3cc4ccncc4s3)cc2)c1 [N-({4-[(2,5-dimethoxybenzene)sulfonyl]phenyl}methyl)thieno[2,3-c]pyridine-2-carboxamide] the IC50 (NAMPT; NAMPT enzymatic assay) was 4 nM and the IC50 (A2780 cells; SRB) was 2.3 nM.

With O=C(NCc1ccc(S(=O)(=O)c2ccc(-n3cccn3)cc2F)cc1)c1cc2ccncc2s1 [N-[(4-{[2-fluoro-4-(1H-pyrazol-1-yl)benzene]sulfonyl}phenyl)methyl]thieno[2,3-c]pyridine-2-carboxamide] the IC50 (NAMPT; NAMPT enzymatic reaction) was 6 nM and the IC50 (A2780 cells; SRB assay) was 8 nM.

For O=C(NCc1ccc(S(=O)(=O)c2ccc(OC(F)(F)F)c(F)c2)cc1)c1cnc2nccn2c1, the IC50 (NAMPT; NAMPT enzymatic assay) was 4 nM and the IC50 (A2780 cells; SRB) was 11.8 nM.

For O=C(NCc1ccc(S(=O)(=O)C2CCCCC2)cc1)c1cc2cnccc2[nH]1 [N-{[4-(cyclohexanesulfonyl)phenyl]methyl}-1H-pyrrolo[3,2-c]pyridine-2-carboxamide], the IC50 (NAMPT; NAMPT enzymatic assay) was 5 nM and the IC50 (A2780 cells; SRB) was 17.6 nM.

O=C(NCc1ccc(S(=O)(=O)c2cc(F)cc(Cl)c2)cc1)c1cc2ccncc2s1 showed an IC50 (NAMPT; NAMPT enzymatic reaction) of 1.4 nM and an IC50 (A2780 cells; SRB) of 0.6 nM.

Work on Cc1cccc(S(=O)(=O)c2ccc(CNC(=O)c3cc4cnccc4[nH]3)cc2)c1C [N-({4-[(2,3-dimethylbenzene)sulfonyl]phenyl}methyl)-1H-pyrrolo[3,2-c]pyridine-2-carboxamide] yielded an IC50 (NAMPT; NAMPT enzymatic assay) of 14 nM and an IC50 (A2780 cells; SRB) of 7 nM.

For O=C(NCc1ccc(S(=O)(=O)c2ccc3c(c2)OCCO3)cc1)c1cc2ccncc2s1 [N-{[4-(2,3-dihydro-1,4-benzodioxine-6-sulfonyl)phenyl]methyl}thieno[2,3-c]pyridine-2-carboxamide], the IC50 (NAMPT; NAMPT enzymatic reaction) was 4 nM and the IC50 (A2780 cells; SRB assay) was 2.7 nM.

O=C(NCc1ccc(S(=O)(=O)c2cccc(C(F)(F)F)c2)cc1)c1cnc2nccn2c1 showed an IC50 (NAMPT; NAMPT enzymatic assay) of 2.7 nM and an IC50 (A2780 cells; SRB) of 3 nM.

Work on Cc1ccc(S(=O)(=O)c2ccc(CNC(=O)c3cc4cnccc4[nH]3)cc2)c(C)c1 [N-({4-[(2,4-dimethylbenzene)sulfonyl]phenyl}methyl)-1H-pyrrolo[3,2-c]pyridine-2-carboxamide] yielded an IC50 (NAMPT; NAMPT enzymatic assay) of 21 nM and an IC50 (A2780 cells; SRB) of 12 nM.

COc1ccc2cc(S(=O)(=O)c3ccc(CNC(=O)c4cc5ccncc5s4)cc3)ccc2c1 [N-{[4-(6-methoxynaphthalene-2-sulfonyl)phenyl]methyl}thieno[2,3-c]pyridine-2-carboxamide] was tested, and the IC50 (NAMPT; NAMPT enzymatic assay) was 1.5 nM and the IC50 (A2780 cells; SRB) was 3.3 nM.

Compound Cn1ncc2cc(C(=O)NCc3ccc(S(=O)(=O)c4ccccc4)cc3)cnc21 [N-{[4-(benzenesulfonyl)phenyl]methyl}-1-methyl-1H-pyrazolo[3,4-b]pyridine-5-carboxamide] has an IC50 (NAMPT; NAMPT enzymatic reaction) of 1730 nM and an IC50 (A2780 cells; SRB assay) of over 30000 nM.

Work on CC(C)NC(=O)c1cccc(S(=O)(=O)c2ccc(CNC(=O)c3cnc4nccn4c3)cc2)c1 yielded an IC50 (NAMPT; NAMPT enzymatic assay) of 7 nM and an IC50 (A2780 cells; SRB) of 65.8 nM.

O=C(NCc1ccc(S(=O)(=O)c2cccc(-c3ncccn3)c2)cc1)c1ccc2nccn2c1 gave an IC50 (NAMPT; NAMPT enzymatic assay) of 21.9 nM and an IC50 (A2780 cells; SRB) of 3.8 nM.

Work on O=C(NCc1ccc(S(=O)(=O)c2ccccc2)cc1)c1nc2cnccc2[nH]1 [N-{[4-(benzenesulfonyl)phenyl]methyl}-1H-imidazo[4,5-c]pyridine-2-carboxamide] yielded an IC50 (NAMPT; NAMPT enzymatic reaction) of 7060 nM and an IC50 (A2780 cells; SRB assay) of 5370 nM.

CCCCOc1ccc(S(=O)(=O)c2ccc(CNC(=O)c3cnc4[nH]ncc4c3)cc2)cc1 [N-({4-[(4-butoxybenzene)sulfonyl]phenyl}methyl)-1H-pyrazolo[3,4-b]pyridine-5-carboxamide] showed an IC50 (NAMPT; NAMPT enzymatic reaction) of 27.5 nM and an IC50 (A2780 cells; SRB) of 22.5 nM.

In the case of O=C(NCc1ccc(S(=O)(=O)c2ccccc2)cc1)N1CCc2ncccc2C1 [N-{[4-(benzenesulfonyl)phenyl]methyl}-5,6,7,8-tetrahydro-1,6-naphthyridine-6-carboxamide], the IC50 (NAMPT; NAMPT enzymatic reaction) is reported as 544 nM and the IC50 (A2780 cells; SRB assay) is reported as over 2000 nM.

Compound O=C(NCc1ccc(S(=O)(=O)c2cccc(Cl)c2)cc1)c1cc2ccncc2s1 [N-({4-[(3-chlorobenzene)sulfonyl]phenyl}methyl)thieno[2,3-c]pyridine-2-carboxamide] has an IC50 (NAMPT; NAMPT enzymatic reaction) of 5 nM and an IC50 (A2780 cells; SRB assay) of 3 nM.

With Cc1ccc(S(=O)(=O)c2ccc(CNC(=O)c3ccc4nccn4c3)cc2)cc1C [N-({4-[(3,4-dimethylbenzene)sulfonyl]phenyl}methyl)imidazo[1,2-a]pyridine-6-carboxamide] the IC50 (NAMPT; NAMPT enzymatic reaction) was 11.1 nM and the IC50 (A2780 cells; SRB) was 2.97 nM.

For N#Cc1ccccc1S(=O)(=O)c1ccc(CNC(=O)c2cc3ccncc3s2)cc1 [N-({4-[(2-cyanobenzene)sulfonyl]phenyl}methyl)thieno[2,3-c]pyridine-2-carboxamide], the IC50 (NAMPT; NAMPT enzymatic reaction) was 14.6 nM and the IC50 (A2780 cells; SRB) was 67.6 nM.

COc1ccc(C(F)(F)F)cc1S(=O)(=O)c1ccc(CNC(=O)c2cnc3nccn3c2)cc1 showed an IC50 (NAMPT; NAMPT enzymatic assay) of 6.8 nM and an IC50 (A2780 cells; SRB) of 3.6 nM.

Work on O=C(NCc1ccc(S(=O)(=O)c2cccc(O)c2)cc1)c1ccc2nccn2c1 yielded an IC50 (NAMPT; NAMPT enzymatic reaction) of 5 nM and an IC50 (A2780 cells; SRB) of 7 nM.

With O=C(NCc1ccc(S(=O)(=O)c2ccc(Cl)c(C(F)(F)F)c2)cc1)c1ccc2nccn2c1 [N-[(4-{[4-chloro-3-(trifluoromethyl)benzene]sulfonyl}phenyl)methyl]imidazo[1,2-a]pyridine-6-carboxamide] the IC50 (NAMPT; NAMPT enzymatic assay) was 9.84 nM and the IC50 (A2780 cells; SRB) was 3.57 nM.

For O=C(NCc1ccc(S(=O)(=O)Nc2cccc3c2CCCC3)cc1)c1cc2cnccc2[nH]1 [N-({4-[(5,6,7,8-tetrahydronaphthalen-1-yl)sulfamoyl]phenyl}methyl)-1H-pyrrolo[3,2-c]pyridine-2-carboxamide], the IC50 (NAMPT; NAMPT enzymatic reaction) was over 30000 nM and the IC50 (A2780 cells; SRB assay) was over 30000 nM.

For COc1cc(F)ccc1S(=O)(=O)c1ccc(CNC(=O)c2cc3ccncc3o2)cc1, the IC50 (NAMPT; NAMPT enzymatic reaction) was 12.7 nM and the IC50 (A2780 cells; SRB) was 16 nM.

Work on O=C(NCc1ccc(S(=O)(=O)N2CCCCC2)cc1)c1ccc2[nH]ncc2c1 [N-{[4-(piperidine-1-sulfonyl)phenyl]methyl}-1H-indazole-5-carboxamide] yielded an IC50 (NAMPT; NAMPT enzymatic reaction) of 18 nM and an IC50 (A2780 cells; SRB assay) of 16 nM.

Compound COc1cc(F)c(F)cc1S(=O)(=O)c1ccc(CNC(=O)c2cc3ccncc3s2)cc1 [N-({4-[(4,5-difluoro-2-methoxybenzene)sulfonyl]phenyl}methyl)thieno[2,3-c]pyridine-2-carboxamide] has an IC50 (NAMPT; NAMPT enzymatic reaction) of 5 nM and an IC50 (A2780 cells; SRB assay) of 2.9 nM.

COc1ccc(F)cc1S(=O)(=O)c1ccc(CNC(=O)c2cnc3nccn3c2)cc1 was tested, and the IC50 (NAMPT; NAMPT enzymatic reaction) was 7.3 nM and the IC50 (A2780 cells; SRB) was 26.1 nM.

In the case of COc1ccc(C(C)(C)C)cc1S(=O)(=O)c1ccc(CNC(=O)c2ccc3nccn3c2)cc1 [N-({4-[(5-tert-butyl-2-methoxybenzene)sulfonyl]phenyl}methyl)imidazo[1,2-a]pyridine-6-carboxamide], the IC50 (NAMPT; NAMPT enzymatic assay) is reported as 29 nM and the IC50 (A2780 cells; SRB) is reported as 6.77 nM.

Work on CCCCc1ccc(S(=O)(=O)c2ccc(CNC(=O)c3cc4ccncc4s3)cc2)cc1 yielded an IC50 (NAMPT; NAMPT enzymatic reaction) of 2.9 nM and an IC50 (A2780 cells; SRB) of 26 nM.

Work on O=C(NCc1ccc(S(=O)(=O)c2c(Cl)cccc2Cl)cc1)c1cnc2nccn2c1 yielded an IC50 (NAMPT; NAMPT enzymatic reaction) of 13.4 nM and an IC50 (A2780 cells; SRB) of 100 to 1000 nM.

Work on O=C(NCc1ccc(S(=O)(=O)c2cccc(N3CCCC3)c2)cc1)c1cnc2nccn2c1 yielded an IC50 (NAMPT; NAMPT enzymatic assay) of 2.5 nM and an IC50 (A2780 cells; SRB) of 4.1 nM.

Work on O=C(NCc1ccc(S(=O)(=O)c2ccc(F)cc2)cc1)c1cc2ccncc2s1 [N-({4-[(4-fluorobenzene)sulfonyl]phenyl}methyl)thieno[2,3-c]pyridine-2-carboxamide] yielded an IC50 (NAMPT; NAMPT enzymatic reaction) of 3 nM and an IC50 (A2780 cells; SRB assay) of 10 nM.

Work on O=C(NCc1ccc(S(=O)(=O)c2ccc3nc(C(F)(F)F)cn3c2)cc1)c1cc2ccncc2o1 [N-({4-[2-(trifluoromethyl)imidazo[1,2-a]pyridine-6-sulfonyl]phenyl}methyl)furo[2,3-c]pyridine-2-carboxamide] yielded an IC50 (NAMPT; NAMPT enzymatic assay) of 21.2 nM and an IC50 (A2780 cells; SRB) of 11.9 nM.

CN(C)C(=O)c1ccc(S(=O)(=O)c2ccc(CNC(=O)c3cc4cnccc4[nH]3)cc2)cc1 [N-[(4-{[4-(dimethylcarbamoyl)benzene]sulfonyl}phenyl)methyl]-1H-pyrrolo[3,2-c]pyridine-2-carboxamide] was tested, and the IC50 (NAMPT; NAMPT enzymatic reaction) was 27 nM and the IC50 (A2780 cells; SRB assay) was 14 nM.

With O=C(NCc1ccc(S(=O)(=O)c2cccc(C(F)(F)F)c2)cc1)c1cc2cnccc2[nH]1 [N-[(4-{[3-(trifluoromethyl)benzene]sulfonyl}phenyl)methyl]-1H-pyrrolo[3,2-c]pyridine-2-carboxamide] the IC50 (NAMPT; NAMPT enzymatic reaction) was 9 nM and the IC50 (A2780 cells; SRB assay) was 3 nM.

O=C(NCc1ccc(S(=O)(=O)c2ccc(Cl)c(Cl)c2)cc1)c1cnc2nccn2c1 showed an IC50 (NAMPT; NAMPT enzymatic reaction) of 1.5 nM and an IC50 (A2780 cells; SRB) of 1.7 nM.

COc1ccc(C(C)(C)C)cc1S(=O)(=O)c1ccc(CNC(=O)c2cnc3[nH]ncc3c2)cc1 gave an IC50 (NAMPT; NAMPT enzymatic assay) of 45.6 nM and an IC50 (A2780 cells; SRB) of 21.6 nM.

Compound COc1cccc(S(=O)(=O)c2ccc(CNC(=O)c3cc4cnccc4[nH]3)cc2)c1OC has an IC50 (NAMPT; NAMPT enzymatic reaction) of 11.7 nM and an IC50 (A2780 cells; SRB) of 4.9 nM.

For O=C(NCc1ccc(S(=O)(=O)c2cccc3c2Oc2ccccc2S3)cc1)c1ccc2nccn2c1 [N-{[4-(phenoxathiine-4-sulfonyl)phenyl]methyl}imidazo[1,2-a]pyridine-6-carboxamide], the IC50 (NAMPT; NAMPT enzymatic assay) was 2.15 nM and the IC50 (A2780 cells; SRB) was 2.18 nM.

O=C(NCc1ccc(S(=O)(=O)c2cccnc2N2CCOCC2)cc1)c1cnc2nccn2c1 [N-({4-[2-(morpholin-4-yl)pyridine-3-sulfonyl]phenyl}methyl)imidazo[1,2-a]pyrimidine-6-carboxamide] was tested, and the IC50 (NAMPT; NAMPT enzymatic assay) was 31.2 nM and the IC50 (A2780 cells; SRB) was 100 to 1000 nM.

Work on Cc1ccc(S(=O)(=O)c2ccc(CNC(=O)c3cc4ccncc4s3)cc2)cc1Cl yielded an IC50 (NAMPT; NAMPT enzymatic reaction) of 5.1 nM and an IC50 (A2780 cells; SRB) of 1 nM.
